The target of the test is T1, MRGPRX4 + RAMP3 (Homo sapiens, UniProt Q96LA9).
T1 construct: expressed in transfected cells; host or cells: HEK293T
Put plainly: IP1 accumulation, MRGPRX4 coexpressed with RAMP3. It is filed as cell-based. Details: key to IP1 Basal / response to agonist, X4:ramp3.I:0.25 / response to agonist, X4:ramp3.I:0.5 / response to agonist, X4:ramp3.I:1: % IP1; unstimulated mock = 0%, fully stimulated MRGPRX4 = 100%. The note with it: Figure 4c-f, agonist 100µM, MRGPRX4 = 100.

From PMC10165273, “Itch receptor MRGPRX4 interacts with the receptor activity–modifying proteins” (The Journal of Biological Chemistry, 2023) come the findings set out here.

Values joined by “and” are separate entries in the source; they are usually repeats but may differ in a detail not shown here. Equal values may be shown once.

T1 sequence (Q96LA9 whole entry): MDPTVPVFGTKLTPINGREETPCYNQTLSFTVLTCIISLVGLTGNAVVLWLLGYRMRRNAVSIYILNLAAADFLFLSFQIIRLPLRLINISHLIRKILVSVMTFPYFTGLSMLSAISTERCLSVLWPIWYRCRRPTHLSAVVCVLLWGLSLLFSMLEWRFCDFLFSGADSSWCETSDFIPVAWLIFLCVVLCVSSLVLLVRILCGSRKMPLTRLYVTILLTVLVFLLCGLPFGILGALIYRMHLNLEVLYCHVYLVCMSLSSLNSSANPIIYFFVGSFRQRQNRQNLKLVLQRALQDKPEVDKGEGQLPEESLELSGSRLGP

In the case of `C[C@H](CCC(=O)NCCS(=O)(=O)O)[C@H]1CC[C@H]2[C@@H]3CC[C@@H]4C[C@H](O)CC[C@]4(C)[C@H]3C[C@H](O)[C@]12C` [TDCA, Taurodeoxycholic acid], the “response to agonist, X4:ramp3.I:0.25” value (X4:ramp3 1:0.25) is 75.8743 and 69.8198. For the same compound, the “response to agonist, X4:ramp3.I:0.5” value (X4:ramp3 1:0.5) is 71.1633 and 71.0507. For the setting “X4:ramp3 1:1”, the “response to agonist, X4:ramp3.I:1” value is 68.5255 and 51.1881.
